The source of these data is patent publication US9856278B2, “Lysophosphatidylserine derivative” (THE UNIVERSITY OF TOKYO, priority 2014, dated 2018).

In data set [1] the target is T1, mouse GPR174 (Mus musculus, UniProt Q3U507).
T1 construct: expressed in transfected cells; host or cells: HEK293 cells, transient transfection with pCAGGS vector (LipofectAMINE 2000)
Put plainly: TGFα cleavage assay, agonistic activity against GPR174. It counts as cell-based. To be noted: for GPR174/LPS3 agonistic activity: HEK293 cells transfected with AP labeled TGFα and mouse GPR174, graded against EC50 of Reference Compound 1; for pEC50: HEK293 cells, mouse GPR174, AP-TGFα release, value in parentheses, read-out: GPR174/LPS3 EC50. The method, then:
(§1) In a Dulbecco's modified Eagle's medium (DMEM) containing 10% bovine fetal calf serum (FCS), HEK293 cells were suspended to give a density of 2.0×10^5 cells/mL and seeded in 4 mL portions in 60 mm dishes. After 24-hr culture in the presence of 5% CO2, transfection with various expression vectors was performed using LipofectAMINE 2000 (Invitrogen). For each 60 mm dish, a plasmid vector for AP labeled TGFα was used in an amount of 1 μg and a pCAGGS plasmid vector for mouse GPR34, P2Y10 or GPR174 was also used in an amount of 1 μg. The plasmid vectors were provided by the methods disclosed in Patent Documents 2 and 5. It should be noted that the AP labeled TGFα is a protein having a human placental alkaline phosphatase fused to the N terminal of membrane-bound pro-TGFα, and a plasmid vector for the AP labeled TGFα can be prepared based on the disclosure of Tokumaru et al., J Cell Biol 151, 209-220 (2000). Twenty-four hours after transfection, cells were dissociated using trypsin/EDTA, resuspended in the culture broth to give a density of 2.0×10^4 cells/well, and seeded in a 96-well plate. In the case of stimulation with compounds, a Hank's balanced salt solution (HBSS, containing 5 mM HEPES) was used. After standing for 30 minutes, test compounds were added at varying concentrations, followed by standing for an additional one hour in the presence of 5% CO2. The 96-well plate was centrifuged (190×g, 3 min) and 80 μL of the supernatant was transferred to another 96-well plate. A reaction buffer (40 mM Tris-HCl (pH 9.5)) containing 10 mM p-nitrophenyl phosphate (p-NPP) was added in an amount of 80 μL to both the supernatant and the cells. After OD405 measurement with a microplate reader (background), heating was done at 37° C. for an hour and then another OD405 measurement was performed. For each well, the background was subtracted from the absorbance measured the second time and the result was fitted to the following formula to calculate AP activity.
(§2) Further, the values obtained by subtracting the AP activity (%) for the unstimulated group were plotted on the vertical axis to draw a graph. […] The EC50 values of the respective compounds are also cited in parentheses.

Data set [2] addresses T2, mouse P2Y10 (Mus musculus, UniProt Q8BFU7).
T2 construct: expressed in transfected cells; host or cells: HEK293 cells, transient transfection with pCAGGS vector (LipofectAMINE 2000)
Put plainly: TGFα cleavage assay, agonistic activity against P2Y10. To be noted: for P2Y10/LPS2 agonistic activity: HEK293 cells transfected with AP labeled TGFα and mouse P2Y10, graded against EC50 of Reference Compound 1; for pEC50: HEK293 cells, mouse P2Y10, AP-TGFα release, value in parentheses, read-out: P2Y10/LPS2 EC50; for selectivity for P2Y10: against GPR34 and GPR174, from Table 3. It counts as cell-based. The protocol:
as §1, §2

The target of data set [3] is T3, mouse GPR34 (Mus musculus, UniProt Q9R1K6).
T3 construct: expressed in transfected cells; host or cells: HEK293 cells, transient transfection with pCAGGS vector (LipofectAMINE 2000)
T3 sequence (Q9R1K6 whole entry): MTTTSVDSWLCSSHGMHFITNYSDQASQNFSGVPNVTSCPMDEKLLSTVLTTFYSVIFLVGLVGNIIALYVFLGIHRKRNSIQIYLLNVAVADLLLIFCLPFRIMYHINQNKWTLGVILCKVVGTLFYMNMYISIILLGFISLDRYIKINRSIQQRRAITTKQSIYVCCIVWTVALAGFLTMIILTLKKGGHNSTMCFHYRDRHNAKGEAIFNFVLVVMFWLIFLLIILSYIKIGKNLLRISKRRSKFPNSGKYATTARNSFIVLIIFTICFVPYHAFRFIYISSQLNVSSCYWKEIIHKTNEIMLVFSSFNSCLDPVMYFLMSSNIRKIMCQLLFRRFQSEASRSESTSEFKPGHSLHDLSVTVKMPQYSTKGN
Briefly: TGFα cleavage assay, agonistic activity against GPR34. It counts as cell-based. To be noted: HEK293 cells transfected with AP labeled TGFα and mouse GPR34; graded against EC50 of Reference Compound 1. The protocol:
as §1
Further, the values obtained by subtracting the AP activity (%) for the unstimulated group were plotted on the vertical axis to draw a graph.

pEC50: −log10 of the molar value. Where a name gives a salt, the structure may show the parent alone.

T2 sequence (Q8BFU7 whole entry): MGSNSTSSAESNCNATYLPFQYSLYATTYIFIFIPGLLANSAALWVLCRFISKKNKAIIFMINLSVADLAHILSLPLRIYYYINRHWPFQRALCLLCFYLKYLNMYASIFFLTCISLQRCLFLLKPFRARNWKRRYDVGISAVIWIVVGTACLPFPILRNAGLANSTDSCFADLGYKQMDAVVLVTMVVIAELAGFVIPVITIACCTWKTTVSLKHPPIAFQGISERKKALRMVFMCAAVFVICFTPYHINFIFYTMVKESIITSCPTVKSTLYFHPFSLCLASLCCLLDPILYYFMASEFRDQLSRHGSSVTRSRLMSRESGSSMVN
T1 sequence (Q3U507 whole entry): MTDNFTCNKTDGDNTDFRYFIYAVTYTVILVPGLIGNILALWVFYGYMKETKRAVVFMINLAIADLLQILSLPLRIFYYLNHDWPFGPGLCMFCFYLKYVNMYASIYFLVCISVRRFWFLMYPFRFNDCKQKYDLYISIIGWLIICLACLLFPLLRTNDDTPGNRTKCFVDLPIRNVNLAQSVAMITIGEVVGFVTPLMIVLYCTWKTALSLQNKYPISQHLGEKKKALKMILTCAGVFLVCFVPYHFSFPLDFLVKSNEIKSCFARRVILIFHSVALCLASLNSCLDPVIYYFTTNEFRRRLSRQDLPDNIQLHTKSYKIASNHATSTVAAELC

Turning to `CCCCCCCCCCCOc1ccccc1CCC(=O)OCc1ccc(OP(=O)(O)OC[C@H](N)C(=O)O)cc1` (as salt: TFA), the melting point (usually the temperature of the solid-liquid transition) is 184 to 193 °C.
Still for that read-out and setting: next, `N[C@@H](COP(=O)(O)Oc1cccc(COC(=O)CCc2ccccc2OCc2cccc(Oc3ccccc3)c2)c1)C(=O)O` (as salt: TFA) [Example 7, O-(hydroxy(3-(((3-(2-((3-phenoxybenzyl)oxy)phenyl)propanoyl)oxy)methyl)phenoxy)phosphoryl)-L-serine]: 175 to 185 °C.
Same read-out and setting: next, `CCCCCCCCCCCOc1ccccc1CCC(=O)Oc1cccc(OP(=O)(O)OC[C@H](N)C(=O)O)c1` (as salt: salt) [Example 2, O-(hydroxy(3-((3-(2-(undecyloxy)phenyl)propanoyl)oxy)phenoxy)phosphoryl)-L-serine]: 123 to 126.5 °C.
Consider `CCCCCCCCCCCOc1ccccc1CCC(=O)Oc1ccc(OP(=O)(O)OC[C@H](N)C(=O)O)cc1` (as salt: salt) [Example 3, O-(hydroxy(4-((3-(2-(undecyloxy)phenyl)propanoyl)oxy)phenoxy)phosphoryl)-L-serine], for which the melting point lay within 140.5 to 142 °C.
Take `CCCCCCCCCCCOc1ccccc1CCC(=O)Oc1cccc(OP(=O)(O)OC[C@H](N)C(=O)O)c1` [Example 2, O-(hydroxy(3-((3-(2-(undecyloxy)phenyl)propanoyl)oxy)phenoxy)phosphoryl)-L-serine]: the GPR174/LPS3 agonistic activity entry in data set [1] was “−”. Moreover, in data set [2], the P2Y10/LPS2 agonistic activity result is “+++~++++”, the pEC50 was 7.85 and the “selectivity for P2Y10” value is “agonists having selectivity for P2Y10”. In addition, the GPR34/LPS1 agonistic activity result in data set [3] was “−”.
`CCCCCCCCCCCOc1ccccc1CCC(=O)Oc1ccc(OP(=O)(O)OC[C@H](N)C(=O)O)cc1` [Example 3, O-(hydroxy(4-((3-(2-(undecyloxy)phenyl)propanoyl)oxy)phenoxy)phosphoryl)-L-serine]: in data set [1], the GPR174/LPS3 agonistic activity entry is listed as “+~++” and the pEC50 was 6.47. Further, in data set [2], the P2Y10/LPS2 agonistic activity result is on record as “+++~++++”, the pEC50 was 8.15 and the “selectivity for P2Y10” value is “agonists having selectivity for P2Y10”. Also, the GPR34/LPS1 agonistic activity entry in data set [3] is “−”.
For the molecule `CCCCCCCCCCCOc1ccccc1CCC(=O)OCc1ccccc1OP(=O)(O)OC[C@H](N)C(=O)O` [Example 4, O-(hydroxy(2-(((3-(2-(undecyloxy)phenyl)propanoyl)oxy)methyl)phenoxy)phosphoryl)-L-serine], the GPR174/LPS3 agonistic activity entry in data set [1] is on record as “+”. In data set [2], the P2Y10/LPS2 agonistic activity result was “++”. Moreover, the GPR34/LPS1 agonistic activity entry in data set [3] is on record as “+++”.
For the molecule `CCCCCCCCCCCOc1ccccc1CCC(=O)OCc1cccc(OP(=O)(O)OC[C@H](N)C(=O)O)c1` [Example 6, O-(hydroxy(3-(((3-(2-(undecyloxy)phenyl)propanoyl)oxy)methyl)phenoxy)phosphoryl)-L-serine], in data set [1], the GPR174/LPS3 agonistic activity entry is listed as “+~++”. Further, in data set [2], the P2Y10/LPS2 agonistic activity entry is listed as “++++”, the pEC50 is 8.48 and the “selectivity for P2Y10” value is recorded as “agonists having selectivity for P2Y10”. Also, in data set [3], the GPR34/LPS1 agonistic activity result is recorded as “−~++”.
On to `N[C@@H](COP(=O)(O)Oc1cccc(COC(=O)CCc2ccccc2OCc2cccc(Oc3ccccc3)c2)c1)C(=O)O` [Example 7, O-(hydroxy(3-(((3-(2-((3-phenoxybenzyl)oxy)phenyl)propanoyl)oxy)methyl)phenoxy)phosphoryl)-L-serine], for which the GPR174/LPS3 agonistic activity result in data set [1] is given as “−~+”. Also, in data set [2], the P2Y10/LPS2 agonistic activity entry is “++~+++”, the pEC50 is 7.51 and the “selectivity for P2Y10” value is “agonists having selectivity for P2Y10”. Moreover, the GPR34/LPS1 agonistic activity result in data set [3] was “−”.
Take `CCCCCCCCCCCOc1ccccc1CCC(=O)Oc1cccc(COP(=O)(O)OC[C@H](N)C(=O)O)c1` [Example 9, O-(hydroxy((3-((3-(2-(undecyloxy)phenyl)propanoyl)oxy)benzyl)oxy)phosphoryl)-L-serine]: the GPR174/LPS3 agonistic activity result in data set [1] is “−”. Also, in data set [2], the P2Y10/LPS2 agonistic activity result is reported as “+++”, the pEC50 is 7.52 and the “selectivity for P2Y10” value is recorded as “agonists having selectivity for P2Y10”. The GPR34/LPS1 agonistic activity result in data set [3] is on record as “−”.
Consider `N[C@@H](COP(=O)(O)OCc1cccc(OC(=O)CCc2ccccc2OCc2cccc(Oc3ccccc3)c2)c1)C(=O)O` [Example 10, O-(hydroxy((3-((3-(2-((3-phenoxybenzyl)oxy)phenyl)propanoyl)oxy)benzyl)oxy)phosphoryl)-L-serine], for which the GPR174/LPS3 agonistic activity result in data set [1] was “+~++”. Besides, in data set [2], the P2Y10/LPS2 agonistic activity entry is reported as “++”. Also, the GPR34/LPS1 agonistic activity entry in data set [3] was “−~+”.
As to `CCCCCCCCCCCOc1ccccc1CCC(=O)OCC#CCOP(=O)(O)OC[C@H](N)C(=O)O` [Example 12, O-(hydroxy((4-((3-(2-(undecyloxy)phenyl)propanoyl)oxy)but-2-yn-1-yl)oxy)phosphoryl)-L-serine], the GPR174/LPS3 agonistic activity entry in data set [1] was “+”. Further, in data set [2], the P2Y10/LPS2 agonistic activity result is “++++~+++++”, the pEC50 was 8.82 and the “selectivity for P2Y10” value is listed as “agonists having selectivity for P2Y10”. Moreover, in data set [3], the GPR34/LPS1 agonistic activity entry is listed as “−”.
`Cc1ccc(Oc2cccc(COc3ccccc3CCC(=O)O)c2)cc1` [Example 33, 3-(2-((3-(p-tolyloxy)benzyl)oxy)phenyl)propanoic acid] gave a melting point of 104.5 to 106 °C.
Consider `Cc1cccc(C)c1-c1cccc(COc2ccccc2CCC(=O)O)c1` [Example 36, 3-(2-((2′,6′-dimethyl[1,1′-biphenyl]-3-yl)methoxy)phenyl)propanoic acid], for which the melting point fell in the range of 117.5 to 120 °C.
Molecule `CC(C)(C)c1ccc(Oc2cccc(COc3ccccc3CCC(=O)O)c2)cc1` [Example 42, 3-(2-((3-(4-(tert-butyl)phenoxy)benzyl)oxy)phenyl)propanoic acid] displayed a melting point of 111.1 to 112.5 °C.
On the same count and under the same terms, for `O=C(O)CCc1ccccc1OCc1cccc(-c2ccccc2)c1` [Example 47, 3-(2-([1,1′-biphenyl]-3-ylmethoxy)phenyl)propanoic acid] the value was 87.8 to 88.8 °C; for `O=C(O)CCc1cccc(OCc2cccc(-c3ccccc3)c2)c1` [Example 48, 3-(3-([1,1′-biphenyl]-3-ylmethoxy)phenyl)propanoic acid], 90 to 91 °C.
As to `CCCCCCCC/C=C\CCCCCCCC(=O)OC[C@@H](O)COP(=O)(O)OC[C@H](N)C(=O)O` [compound 1, reference compound], in data set [1], the GPR174/LPS3 agonistic activity entry is listed as “+++” and the pEC50 was 7.09. For the same molecule, in data set [2], the P2Y10/LPS2 agonistic activity entry was “+++” and the pEC50 is 8.08. Besides, the GPR34/LPS1 agonistic activity result in data set [3] is recorded as “+++”.
